Test results from ChEMBL document CHEMBL1201862, “PubChem BioAssay data set” (2004).
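Cells were grown in 96-well plates and exposed to each compound for 48 hours at five concentrations; endpoints were interpolated linearly between bracketing concentrations, or set to the highest concentration if not reached. Here, GI50 denotes the concentration required for 50% inhibition of growth.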 Active and inactive are the calls of the source. No stated cut-off is given here; in the data, active = GI50 up to about 1.1 µM and inactive = higher.

What was measured:
Assay in all cases: NCI-60 cell line screen, 48 h
CAKI-1 = test system: CAKI-1
COLO 205 = test system: COLO 205
HOP-92 = test system: HOP-92
HT-29 = test system: HT-29
Hs-578T = test system: Hs-578T
LOX IMVI = test system: LOX IMVI
MDA-MB-435 = test system: MDA-MB-435
NCI-H23 = test system: NCI-H23
NCI-H460 = test system: NCI-H460
OVCAR-3 = test system: OVCAR-3
OVCAR-4 = test system: OVCAR-4
OVCAR-5 = test system: OVCAR-5
OVCAR-8 = test system: OVCAR-8
RPMI-8226 = test system: RPMI-8226
SF-268 = test system: SF-268
SK-MEL-28 = test system: SK-MEL-28
SK-MEL-2 = test system: SK-MEL-2
SNB-19 = test system: SNB-19
T47D = test system: T47D
UO-31 = test system: UO-31

| Structure (SMILES) | GI50 (CAKI-1) | GI50 (COLO 205) | GI50 (HOP-92) | GI50 (HT-29) | GI50 (Hs-578T) | GI50 (LOX IMVI) | GI50 (MDA-MB-435) | GI50 (NCI-H23) | GI50 (NCI-H460) | GI50 (OVCAR-3) | GI50 (OVCAR-4) | GI50 (OVCAR-5) | GI50 (OVCAR-8) | GI50 (RPMI-8226) | GI50 (SF-268) | GI50 (SK-MEL-28) | GI50 (SK-MEL-2) | GI50 (SNB-19) | GI50 (T47D) | GI50 (UO-31) |
| --- | --- | --- | --- | --- | --- | --- | --- | --- | --- | --- | --- | --- | --- | --- | --- | --- | --- | --- | --- | --- |
| N=C(N)NCCCC(NCc1c2ccccc2nc2ccccc12)C(=O)O (centres undefined) | 26.6 µM (inactive) | 37.9 µM (inactive) | 7.93 µM (inactive) | 18.9 µM (inactive) | 69.7 µM (inactive) | 26.2 µM (inactive) | 41.8 µM (inactive) | 53.1 µM (inactive) | 36.1 µM (inactive) | 40.9 µM (inactive) | 29.2 µM (inactive) | > 100 µM (inactive) | 25.7 µM (inactive) | 10.4 µM (inactive) | 47.6 µM (inactive) | > 66.7 µM (inactive) | 41 µM (inactive) | 48.4 µM (inactive) | 36.2 µM (inactive) | 23.6 µM (inactive) |
| Cc1cc2c(cc1C)NC1=C(O)C(c3c[nH]c4ccc(COc5ccccc5)cc34)OC1=N2 (centres undefined) | > 100 µM (inactive) | > 100 µM (inactive) | 33.3 µM (inactive) | > 100 µM (inactive) | 36 µM (inactive) | > 100 µM (inactive) | > 100 µM (inactive) | > 100 µM (inactive) | > 100 µM (inactive) | > 100 µM (inactive) | > 100 µM (inactive) | > 100 µM (inactive) | 43.9 µM (inactive) | > 100 µM (inactive) | 64.9 µM (inactive) | > 100 µM (inactive) | 58.2 µM (inactive) | 42.2 µM (inactive) | > 100 µM (inactive) | 79.8 µM (inactive) |
| CC12CCC3c4ccc(O)cc4CCC3C1C/C(=N\O)C2O (centres undefined) | > 100 µM (inactive) | > 100 µM (inactive) | > 100 µM (inactive) | 77.6 µM (inactive) | 99.1 µM (inactive) | > 100 µM (inactive) | > 100 µM (inactive) | > 100 µM (inactive) | > 100 µM (inactive) | > 100 µM (inactive) | > 100 µM (inactive) | > 100 µM (inactive) | > 100 µM (inactive) | 85.1 µM (inactive) | > 100 µM (inactive) | > 100 µM (inactive) | > 100 µM (inactive) | > 100 µM (inactive) | > 100 µM (inactive) | > 100 µM (inactive) |
| Cn1c(=S)c2nc(SCc3cccnc3)[nH]c2n(C)c1=O | > 100 µM (inactive) | > 100 µM (inactive) | > 100 µM (inactive) | > 100 µM (inactive) | 92 µM (inactive) | > 100 µM (inactive) | > 100 µM (inactive) | > 100 µM (inactive) | > 100 µM (inactive) | > 100 µM (inactive) | > 100 µM (inactive) | > 100 µM (inactive) | > 100 µM (inactive) | > 100 µM (inactive) | > 100 µM (inactive) | > 100 µM (inactive) | > 100 µM (inactive) | > 100 µM (inactive) | > 100 µM (inactive) | > 100 µM (inactive) |
| N#Cc1c(NCCc2ccc(F)cc2)c2ccccc2n2c1nc1ccccc12 | 9.84 µM (inactive) | 71.6 µM (inactive) | 3.55 µM (inactive) | 14.9 µM (inactive) | 4.33 µM (inactive) | 14.1 µM (inactive) | 73.5 µM (inactive) | 13.1 µM (inactive) | 16.5 µM (inactive) | 13.9 µM (inactive) | 2.45 µM (inactive) | 41.6 µM (inactive) | 5.68 µM (inactive) | 46.8 µM (inactive) | 7.41 µM (inactive) | 40.6 µM (inactive) | 36.9 µM (inactive) | 14 µM (inactive) | 22.4 µM (inactive) | 13.7 µM (inactive) |
| O=C1/C(=C/c2cccc([N+](=O)[O-])c2)N=C(c2ccccc2)N1c1nc2c(Cl)cc(Cl)cc2s1 | 40.7 µM (inactive) | 31.8 µM (inactive) | 24.6 µM (inactive) | 19.1 µM (inactive) | 35.8 µM (inactive) | 16.4 µM (inactive) | 20.8 µM (inactive) | – | 27.5 µM (inactive) | 17.1 µM (inactive) | 24 µM (inactive) | 26.7 µM (inactive) | 22 µM (inactive) | 31.2 µM (inactive) | 42.6 µM (inactive) | 40.7 µM (inactive) | 21.4 µM (inactive) | 23.1 µM (inactive) | 24.9 µM (inactive) | 21.8 µM (inactive) |
| CCOC(=O)N1c2ccccc2N(C(=O)OCC)C1CC(=O)/C=C/c1ccccc1 | 1.44 µM (inactive) | 2.04 µM (inactive) | 1.97 µM (inactive) | 2.94 µM (inactive) | 1.87 µM (inactive) | 2.45 µM (inactive) | 2.74 µM (inactive) | 2.88 µM (inactive) | 3.03 µM (inactive) | 3.13 µM (inactive) | 2.23 µM (inactive) | 2.65 µM (inactive) | 2.65 µM (inactive) | 3.19 µM (inactive) | 2.37 µM (inactive) | 7.57 µM (inactive) | 1.94 µM (inactive) | 3.28 µM (inactive) | 5.16 µM (inactive) | 3.82 µM (inactive) |
| CC1=NN(C(=O)CSc2nc3ccc(I)cc3c(=O)n2Cc2ccccc2)C(=O)C1 | 31.8 µM (inactive) | 33.5 µM (inactive) | 36.1 µM (inactive) | 34.3 µM (inactive) | 7.89 µM (inactive) | 16.4 µM (inactive) | 26.4 µM (inactive) | 16.1 µM (inactive) | 31.8 µM (inactive) | 27.9 µM (inactive) | 24.2 µM (inactive) | 65.2 µM (inactive) | 48.8 µM (inactive) | 35 µM (inactive) | 21.4 µM (inactive) | 57.3 µM (inactive) | 17.2 µM (inactive) | 33.7 µM (inactive) | 19.1 µM (inactive) | – |
| O=C(O)c1cccc2c1/C(=N/Nc1ccccc1)CC2 | 26.1 µM (inactive) | – | > 100 µM (inactive) | > 100 µM (inactive) | > 100 µM (inactive) | > 100 µM (inactive) | > 100 µM (inactive) | > 100 µM (inactive) | 32.1 µM (inactive) | > 100 µM (inactive) | > 100 µM (inactive) | > 100 µM (inactive) | > 100 µM (inactive) | > 100 µM (inactive) | > 100 µM (inactive) | > 100 µM (inactive) | 66.8 µM (inactive) | – | 9.84 µM (inactive) | > 100 µM (inactive) |
| Nc1nc(Cl)cc(NCC2(CO)CCC(Cc3ccccc3)C2)n1 (centres undefined) | 19.3 µM (inactive) | 12.8 µM (inactive) | 20.6 µM (inactive) | 19.1 µM (inactive) | 25.4 µM (inactive) | 8.59 µM (inactive) | 7.73 µM (inactive) | 2.87 µM (inactive) | 18.6 µM (inactive) | 43.1 µM (inactive) | 13.6 µM (inactive) | 33.3 µM (inactive) | 15.6 µM (inactive) | 12 µM (inactive) | 30.1 µM (inactive) | 37.5 µM (inactive) | 23.6 µM (inactive) | 33.5 µM (inactive) | 6.5 µM (inactive) | 38.3 µM (inactive) |
| C#CC1(O)CCCCCCCCC2(CCCCCCCC1)OCCO2 | 12 µM (inactive) | 17.4 µM (inactive) | 17.4 µM (inactive) | 18.3 µM (inactive) | 17.8 µM (inactive) | 22.1 µM (inactive) | 19.4 µM (inactive) | 16.8 µM (inactive) | 21.3 µM (inactive) | 15.4 µM (inactive) | 4.81 µM (inactive) | 22 µM (inactive) | 19.4 µM (inactive) | 0.414 µM (active) | 17.3 µM (inactive) | 19.5 µM (inactive) | 13.7 µM (inactive) | 18.9 µM (inactive) | 15.5 µM (inactive) | < 0.01 µM (active) |
| O=c1oc2ccc([N+](=O)[O-])cc2c(Nc2ccc3c(c2)Oc2ccccc2O3)c1[N+](=O)[O-] | 28.8 µM (inactive) | 21.7 µM (inactive) | 19.2 µM (inactive) | 35.2 µM (inactive) | 44.3 µM (inactive) | 31.7 µM (inactive) | 37.1 µM (inactive) | 25.1 µM (inactive) | 30 µM (inactive) | 47.3 µM (inactive) | 42 µM (inactive) | 38 µM (inactive) | 26.8 µM (inactive) | 23.3 µM (inactive) | 48.1 µM (inactive) | 39.9 µM (inactive) | 21.3 µM (inactive) | 28.6 µM (inactive) | 50.2 µM (inactive) | 69.2 µM (inactive) |
| O=C(O)c1cc2c(s1)C(=O)c1sccc1C2=O | 12.4 µM (inactive) | 17.2 µM (inactive) | 16.3 µM (inactive) | 5.64 µM (inactive) | 2.49 µM (inactive) | 1.32 µM (inactive) | 0.774 µM (active) | 2.2 µM (inactive) | 17.3 µM (inactive) | 4.81 µM (inactive) | 6.7 µM (inactive) | 9.91 µM (inactive) | 4.09 µM (inactive) | 12.7 µM (inactive) | 5.24 µM (inactive) | 1.9 µM (inactive) | 2.23 µM (inactive) | 5.48 µM (inactive) | 4.97 µM (inactive) | 5.98 µM (inactive) |
| O=C(O)CCc1nc(-c2ccccc2)c(-c2ccccc2)o1 [OXAPROZIN] | > 100 µM (inactive) | > 100 µM (inactive) | > 100 µM (inactive) | > 100 µM (inactive) | > 100 µM (inactive) | > 100 µM (inactive) | > 100 µM (inactive) | > 100 µM (inactive) | > 100 µM (inactive) | > 100 µM (inactive) | > 100 µM (inactive) | > 100 µM (inactive) | > 100 µM (inactive) | 74.8 µM (inactive) | – | > 100 µM (inactive) | > 100 µM (inactive) | > 100 µM (inactive) | 74.5 µM (inactive) | – |
